Results published in ChEMBL document CHEMBL3885881, “DrugMatrix”.

Species: Rattus norvegicus
Assay type: toxicity, organism-based, Sprague-Dawley
Conditions: in vivo, po, route oral GAVAGE, […]; for ABSOLUTE EOSINOPHIL / ABSOLUTE LYMPHOCYTE / ABSOLUTE MONOCYTE / ABSOLUTE SEGMENTED NEUTROPHIL / BASOPHIL / EOSINOPHIL / ERYTHROCYTE COUNT / HEMATOCRIT / HEMOGLOBIN / LEUKOCYTE COUNT / LYMPHOCYTE / MEAN CORPUSCULAR HEMOGLOBIN / MEAN CORPUSCULAR HEMOGLOBIN CONCENTRATION / MEAN CORPUSCULAR VOLUME / MONOCYTE / NEUTROPHIL / NUCLEATED RED BLOOD CELLS / PLATELET COUNT: tissue Blood; for ALANINE AMINOTRANSFERASE / ALKALINE PHOSPHATASE / ASPARTATE AMINOTRANSFERASE / BLOOD UREA NITROGEN / CARBON DIOXIDE / CHLORIDE / CHOLESTEROL / CREATINE PHOSPHOKINASE / CREATININE / GLUCOSE / LACTATE DEHYDROGENASE / LIPASE / PHOSPHORUS / POTASSIUM / SODIUM / TOTAL BILIRUBIN / TOTAL PROTEIN / URIC ACID: tissue Plasma
[1] = 100 mg/kg, 24 h, dose level Low, time 1 day
[2] = 700 mg/kg, 6 h, dose level High, time 0.25 day
[3] = 700 mg/kg, 24 h, dose level High, time 1 day

Description: DrugMatrix - Regimen: Single

For Cc1ccc(C)c(OCCCC(C)(C)C(=O)O)c1 [GEMFIBROZIL], the “ABSOLUTE EOSINOPHIL” value [1] was 126.33 CELLS/uL, the “ABSOLUTE LYMPHOCYTE” value [1] was 13618.33 CELLS/uL and the “ABSOLUTE MONOCYTE” value [1] was 235.33 CELLS/uL. The “ABSOLUTE SEGMENTED NEUTROPHIL” value [1] was 1320 CELLS/uL, the BASOPHIL [1] was 0% and the EOSINOPHIL [1] was 0.83%. The “ERYTHROCYTE COUNT” value [1] was 5.54 x10E6/uL, the HEMATOCRIT [1] was 35.43% and the HEMOGLOBIN [1] was 13.82 G/DL. For the same compound, the “LEUKOCYTE COUNT” value [1] was 15.3 x10E3/uL, the LYMPHOCYTE [1] was 89.17% and the “MEAN CORPUSCULAR HEMOGLOBIN” value [1] was 25.02 pg. For the same compound, the “MEAN CORPUSCULAR HEMOGLOBIN CONCENTRATION” value [1] was 39 G/DL, the “MEAN CORPUSCULAR VOLUME” value [1] was 64.12 fL and the MONOCYTE [1] was 1.5%. For the same compound, the NEUTROPHIL [1] was 8.5%, the “NUCLEATED RED BLOOD CELLS” value [1] was 0 /100WBC and the “PLATELET COUNT” value [1] was 879.83 x10E3/uL. The “ALANINE AMINOTRANSFERASE” value [1] was 82.17 u/L, the “ALKALINE PHOSPHATASE” value [1] was 348.5 u/L and the “ASPARTATE AMINOTRANSFERASE” value [1] was 88.67 u/L. For the same compound, the “BLOOD UREA NITROGEN” value [1] was 11.17 mg/dL, the “CARBON DIOXIDE” value [1] was 30.17 mmol/L and the CHLORIDE [1] was 101.33 MEQ/L. For the same compound, the CHOLESTEROL [1] was 57.17 mg/dL, the “CREATINE PHOSPHOKINASE” value [1] was 237 u/L and the CREATININE [1] was 0.18 mg/dL. For the same compound, the GLUCOSE [1] was 138.33 mg/dL, the “LACTATE DEHYDROGENASE” value [1] was 130.5 u/L and the LIPASE [1] was 8.67 u/L. It also gave a PHOSPHORUS [1] of 9.87 mg/dL, a POTASSIUM [1] of 6.21 MEQ/L and an SODIUM [1] of 146.35 MEQ/L. For the same compound, the “TOTAL BILIRUBIN” value [1] was 0.15 mg/dL, the “TOTAL PROTEIN” value [1] was 5.83 G/DL and the “URIC ACID” value [1] was 1.02 mg/dL. For the same compound, the “ABSOLUTE EOSINOPHIL” value [2] was 0 CELLS/uL, the “ABSOLUTE LYMPHOCYTE” value [2] was 11512.83 CELLS/uL and the “ABSOLUTE MONOCYTE” value [2] was 281.33 CELLS/uL. For the same compound, the “ABSOLUTE SEGMENTED NEUTROPHIL” value [2] was 1289.17 CELLS/uL, the BASOPHIL [2] was 0% and the EOSINOPHIL [2] was 0%. For the same compound, the “ERYTHROCYTE COUNT” value [2] was 5.72 x10E6/uL, the HEMATOCRIT [2] was 36.68% and the HEMOGLOBIN [2] was 14.32 G/DL. The “LEUKOCYTE COUNT” value [2] was 13.08 x10E3/uL, the LYMPHOCYTE [2] was 87.5% and the “MEAN CORPUSCULAR HEMOGLOBIN” value [2] was 25.02 pg. For the same compound, the “MEAN CORPUSCULAR HEMOGLOBIN CONCENTRATION” value [2] was 39.02 G/DL, the “MEAN CORPUSCULAR VOLUME” value [2] was 64.17 fL and the MONOCYTE [2] was 2.33%. For the same compound, the NEUTROPHIL [2] was 10.17%, the “NUCLEATED RED BLOOD CELLS” value [2] was 0 /100WBC and the “PLATELET COUNT” value [2] was 1058.5 x10E3/uL. For the same compound, the “ALANINE AMINOTRANSFERASE” value [2] was 68.17 u/L, the “ALKALINE PHOSPHATASE” value [2] was 373.33 u/L and the “ASPARTATE AMINOTRANSFERASE” value [2] was 85.5 u/L. The “BLOOD UREA NITROGEN” value [2] was 9.83 mg/dL, the “CARBON DIOXIDE” value [2] was 30.5 mmol/L and the CHLORIDE [2] was 95.17 MEQ/L. For the same compound, the CHOLESTEROL [2] was 81.83 mg/dL, the “CREATINE PHOSPHOKINASE” value [2] was 224.83 u/L and the CREATININE [2] was 0.16 mg/dL. The GLUCOSE [2] was 138.17 mg/dL, the “LACTATE DEHYDROGENASE” value [2] was 127.17 u/L and the LIPASE [2] was 12.33 u/L. It also gave a PHOSPHORUS [2] of 11.42 mg/dL, a POTASSIUM [2] of 6.25 MEQ/L and an SODIUM [2] of 143.7 MEQ/L. For the same compound, the “TOTAL BILIRUBIN” value [2] was 0.68 mg/dL, the “TOTAL PROTEIN” value [2] was 6.2 G/DL and the “URIC ACID” value [2] was 1.3 mg/dL. For the same compound, the “ABSOLUTE EOSINOPHIL” value [3] was 30.33 CELLS/uL, the “ABSOLUTE LYMPHOCYTE” value [3] was 15144 CELLS/uL and the “ABSOLUTE MONOCYTE” value [3] was 266 CELLS/uL. The “ABSOLUTE SEGMENTED NEUTROPHIL” value [3] was 893 CELLS/uL, the BASOPHIL [3] was 0% and the EOSINOPHIL [3] was 0.17%. The “ERYTHROCYTE COUNT” value [3] was 5.34 x10E6/uL, the HEMATOCRIT [3] was 34.55% and the HEMOGLOBIN [3] was 13.67 G/DL. The “LEUKOCYTE COUNT” value [3] was 16.33 x10E3/uL, the LYMPHOCYTE [3] was 92.33% and the “MEAN CORPUSCULAR HEMOGLOBIN” value [3] was 25.58 pg. The “MEAN CORPUSCULAR HEMOGLOBIN CONCENTRATION” value [3] was 39.58 G/DL, the “MEAN CORPUSCULAR VOLUME” value [3] was 64.72 fL and the MONOCYTE [3] was 1.67%. The NEUTROPHIL [3] was 5.83%, the “NUCLEATED RED BLOOD CELLS” value [3] was 0.33 /100WBC and the “PLATELET COUNT” value [3] was 1050.67 x10E3/uL. For the same compound, the “ALANINE AMINOTRANSFERASE” value [3] was 55.83 u/L, the “ALKALINE PHOSPHATASE” value [3] was 484.5 u/L and the “ASPARTATE AMINOTRANSFERASE” value [3] was 65.17 u/L. For the same compound, the “BLOOD UREA NITROGEN” value [3] was 10.67 mg/dL, the “CARBON DIOXIDE” value [3] was 28 mmol/L and the CHLORIDE [3] was 100 MEQ/L. For the same compound, the CHOLESTEROL [3] was 71 mg/dL, the “CREATINE PHOSPHOKINASE” value [3] was 320.67 u/L and the CREATININE [3] was 0.21 mg/dL. The GLUCOSE [3] was 140.83 mg/dL, the “LACTATE DEHYDROGENASE” value [3] was 120.67 u/L and the LIPASE [3] was 9.67 u/L. For the same compound, the PHOSPHORUS [3] was 10.38 mg/dL, the POTASSIUM [3] was 5.59 MEQ/L and the SODIUM [3] was 146.73 MEQ/L. For the same compound, the “TOTAL BILIRUBIN” value [3] was 0.25 mg/dL, the “TOTAL PROTEIN” value [3] was 5.97 G/DL and the “URIC ACID” value [3] was 1.07 mg/dL.
